# Values quoted from earlier work in patent publication US11583515B2, “Composition and method for rapidly inducing an endogenous ketosis” (priority 2015, dated 2023).
# What was measured:
# [1] = racemic mixture of R and S enantiomers, taken orally
# [2] = tested on: insulin signaling cascade; conditions: 600, 1200, and 1800 mg daily for four weeks; individuals with impaired insulin signaling cascades
# [3] = tested on: Dawley rats
# [4] = in vivo
# [5] = tested on: muscle cells; conditions: with and without the presence of insulin or exercise
compound,measurement,setting,value
"O=C(O)CCCCC1CCSS1 (racemic) [Alpha Lipoic acid, 1,2-dithiolane-3-pentanoic acid]",bioavailability after absorption,[1],~30%
same,complete plasma clearance,[1],approximately three hours
same,half-life,[1],thirty minutes to one and one half hours
same,improvement of effectiveness of the signaling cascade on glucose uptake and utilization,[2],25%
same,effect on mother or child,"2014 study, treating peripheral neuropathy during pregnancy",no harmful effect
same,safety of supplementation,"animal or human studies, various ranges of intake, large doses or extended use",safe with no widespread serious or life-threatening reactions reported
beta-hydroxybutyrate salts,effect on triglycerides or total cholesterol,[3]; after four weeks of repeated daily ingestion,no effect
same,effect on blood glucose numbers,"[3]; orally supplemented, 28 days",improved
same,effect to promote weight loss,"[3]; orally supplemented, 28 days",no effect
same,"blood level of beta-hydroxybutyrate, acetoacetate, and acetone",[3]; supplementation,increases
[Cr] [Chromium],"absorption, share of an ingested dose",[4],1-2%
same,complete plasma clearance half-life,[4],8 to 12 h
same,rate of cellular glucose uptake,[5],several times normal
same,doses used without any reported adverse effects,chromium containing supplements,up to 1000 mcg
